Assay results published in patent US20260272851A1, “FORMULATION COMPRISING APOCYNIN AND PAEONOL” (AKL Research & Development Ltd, priority 2022, published 2026).
Several values for one entry are separate records, joined by “and”; a condition that tells them apart may be missing. Identical values can stand only once.

How the values were obtained:
Type in all cases: cell-based
[1] = tested on: human TC28a2 chondrocyte cells; assay: SA-β-Gal activity by FDG flow cytometry in TC28a2 cells exposed to IL-6 or etoposide; conditions: Basal = 1
Experimental: The immortalized human juvenile chondrocyte cell line T/C28a2 (25), was used in some experiments.
Cells were plated at a density of 5×10^4 cells/well in Corning® CellBIND® multiwell 96 plates (MW 96) (Corning, NY, USA) or 1.8×10^5 cells/well in MW 12 plates (Corning, NY, USA) for analysis. Cells were left to equilibrate overnight in DMEM at 5% or 2% of FBS in 5% CO2 at 37° C.
The effect of APPA on number of senescent cells was therefore evaluated by the quantification of β-galactosidase activity using flow cytometry. β-galactosidase activity was detected using fluorescein di-β-D-galactopyranoside (FDG; Thermo Fisher, Waltham, MA, USA) by flow cytometry. Non-fluorescent FDG is sequentially hydrolysed by β-galactosidase, first to fluorescein monogalactoside and then to highly fluorescent fluorescein. Enzyme-mediated hydrolysis of FDG can be followed by the increase in fluorescence.
These conditions were evaluated with and without 10 μg/ml APPA for 24 h. […] At the end of incubation, cultures were washed with PBS, resuspended by trypsinization and analysed immediately using a FACScalibour flow cytometer (Becton Dickinson). Data were acquired and analysed with Cellquest software (Becton Dickinson). Each fluorescein signal was measured on an FL1 detector and β-galactosidase activity was estimated using the median fluorescence intensity (arbitrary units) of the cell population.

[2] = tested on: human TC28a2 chondrocyte cells; assay: DRAQ7 chondrocyte viability assay (flow cytometry); conditions: 24 h
Experimental: A novel cell viability assay uses DRAQ7, a marker of apoptosis, necrosis and dead cells. DRAQ7 stains the nuclei in dead and permeabilised cells but not in intact live cells.
To determine the effects of APPA (10 μg/ml) AP (2.3 and 10 μg/ml) and PA (7.7 and 10 μg/ml) on chondrocyte viability, an assay based on DRAQ7™ (Thermo Fisher Scientific) was used. DRAQ7™ is a dye that can be used to show apoptosis, necrosis and dead cells, and the assay includes staining of nuclei in dead and permeabilised cells but not staining of intact live cells.
For the assay, cells were grown in flasks due to higher number of cells required. Following 24 h of different treatments, cells were trypsinised and centrifuged at 1500 rpm for 10 minutes (min). The harvested cells were suspended in 3 µM of the fluorescent dye DRAQ7™ (Thermo Fisher) and incubated in the dark, at room temperature (rt) for 10 min. The samples were run on CytoFLex flow cytometer (Beckman Coulter Inc. Ca, USA). At least 1×10^4 cells per assay were measured. Data were analysed using CyExpert V 2.5 software (Beckman Coulter Inc). […] To establish the position of DRAQ7− and DRAQ7+ gates, one of each negative and positive control was stained with DRAQ7 dye and the other with PBS alone (data not shown).

[3] = tested on: primary human chondrocytes; assay: SA-β-Gal levels by FDG flow cytometry in primary chondrocytes exposed to etoposide and OSM; conditions: for SA-β-Gal level (Mean ± SEM): Eto-20 μM + OSM = 1; for effect on SA-β-Gal levels, in words: Eto + OSM, AP 2.3 and 10 μg/ml, PA 7.7 and 10 μg/ml individually (FIG. 7b)
[4] = tested on: CDKN1A (p21); assay: CDKN1A (p21) relative mRNA expression by RT-PCR; conditions: primary human chondrocytes
Excerpt: CDKN1 (p21) is a genetic marker for cell senescence that codes for cyclin dependent kinase inhibitor 1A, a regulator of cell cycle progression. The expression of this gene is tightly controlled by the tumor suppressor protein p53. Activated p53 increases the expression of p21 which contributes to senescence. […] Cell-cycle arrest due to an increase in expression of genes that inhibit proliferation, the changes that occur in senescent cells can also result in the increased production of cytokines, growth factors, and matrix metalloproteinase (Loeser R F. Aging and osteoarthritis: the role of chondrocyte senescence and aging changes in the cartilage matrix. Osteoarthritis Cartilage. 2009 August; 17 (8): 971-9). Relative mRNA expression levels of CDKN1 were detected by quantitative real-time (RT)-PCR in presence of positive stimuli +/−10 μg/ml APPA. Data were obtained from eight independent donors. Values are presented as mean±SEM and analyzed by Mann Whitney test (*p≤0.05). RNA extraction was achieved using TRIzol® (Sigma-Aldrich), following the manufacturer's protocol. 0.5 μg of RNA was reversely transcribed into cDNA using Super Script VILO (Thermofisher Scientific, Waltham, Massachusetts, USA) following the manufacturer's instructions. RT-PCR was developed in a LightCycler 480-II Instrument (Roche, Mannheim, Germany) using TaqMan Universal Master Mix (Roche). Analysis of the results was carried out using Qbase+ version 2.5 software (Biogazelle, Ghent, Belgium). Gene expression was calculated relative to the housekeeping gene Glyceraldehyde-3-Phosphate Dehydrogenase (GAPDH). Relative mRNA expression levels of cyclin dependent kinase inhibitor 1A (CDKN1) were detected by quantitative real-time (RT)-PCR in the same manner as above. Data were obtained from six independent donors.

[5] = tested on: BECN-1; assay: BECN-1 gene expression by RT-PCR; conditions: primary human chondrocytes; Eto + OSM + PA 7.7 μg/ml (FIG. 7d)
Experimental: RNA extraction was achieved using TRIzol® (Sigma-Aldrich), following the manufacturer's protocol. 0.5 μg of RNA was reversely transcribed into cDNA using Super Script VILO (Thermofisher Scientific, Waltham, Massachusetts, USA) following the manufacturer's instructions. RT-PCR was developed in a LightCycler 480-II Instrument (Roche, Mannheim, Germany) using TaqMan Universal Master Mix (Roche). Analysis of the results was carried out using Qbase+ version 2.5 software (Biogazelle, Ghent, Belgium). Gene expression was calculated relative to the housekeeping gene Glyceraldehyde-3-Phosphate Dehydrogenase (GAPDH). […] BECN-1 is a regulator of autophagy; the encoded protein, Beclin1, is a component of the phosphatidylinositol-3-kinase (PI3K) complex which mediates vesicle-trafficking processes. Autophagy is a self-degradative process that is important for balancing sources of energy at critical times during development and in response to cell stress. Although autophagy is not a type of cell death, it is important for cartilage homeostasis. […]

SMILES	SA-β-Gal level (Mean ± SEM) ([1]; Eto-5 μM + AP 2.3 μg/ml)	SA-β-Gal level (Mean ± SEM) ([1]; Eto-5 μM + AP 10 μg/ml)	percentage of (non-viable) cells positive for DRAQ7 ([2]; human, 10 μg/ml)	SA-β-Gal level (Mean ± SEM) ([3]; Eto + OSM + AP-2.3 μg/ml)	SA-β-Gal level (Mean ± SEM) ([3]; Eto + OSM + AP-10 μg/ml)	effect on SA-β-Gal levels, in words [3]	expression level of CDKN1A (p21) (Mean ± SEM) ([4]; Eto 20 μM + OSM 10 ng/ml + AP 2.3 μg/ml)	expression level of CDKN1A (p21) (Mean ± SEM) ([4]; Eto 20 μM + OSM 10 ng/ml + AP 10 μg/ml)	effect on CDKN1A (p21) expression, in words ([4]; Eto + OSM, AP at 2.3 and 10 μg/ml)	effect on cell viability (DRAQ7) ([2]; TC28a2, APPA 10, AP 2.3 and 10, PA 7.7 and 10 μg/ml)	SA-β-Gal level (Mean ± SEM) ([3]; Eto + OSM + PA-7.7 μg/ml)	SA-β-Gal level (Mean ± SEM) ([3]; Eto + OSM + PA-10 μg/ml)	expression level of CDKN1A (p21) (Mean ± SEM) ([4]; Eto 20 μM + OSM 10 ng/ml + 10 μg/ml (PA 10 μg/ml per text))	BECN-1 gene expression [5]
COc1cc(C(C)=O)ccc1O [AP, 4-hydroxy-3-methoxyacetophenone]	0.9191	0.8948	5.05%	0.9947	1.01	no significant effects	1.0102 ± 0.25	1.617 ± 0.32	neither concentration of AP nor PA 7.7 μg/ml had any significant effect	–	–	–	–	–
COc1ccc(C(C)=O)c(O)c1 [PA, 2-hydroxy-4-methoxyacetophenone]	–	–	–	–	–	no significant effects	–	–	–	do not affect cell viability	0.9844	0.9622	0.869 ±0.17 and 0.8635 ± 0.17	significantly counteracted
